SMILES strings stand for the structures. Peptide text beside a SMILES is read from it.

Experiment [1] relates to isolated β-cells. Put plainly: Membrane capacitance recordings (exocytosis) in isolated β-cells. It counts as cell-based, mouse. As to the method:
Isolation of pancreatic β-cells. Single β-cells were obtained from isolated islets dispersed by gentle trituration (120 strokes through a 200 μl pipette tip) in Ca^2+ and Mg^2+-free PBS containing […]. Cells were plated on glass coverslips and maintained in culture in RPMI containing 11.6 mM glucose for 48-96 hr.
Capacitance recordings. Capacitance measurements were made with the phase-tracking technique in which a 60 mV peak-to-peak sine wave was superimposed on a holding potential of −80 mV as previously described. Conductance and capacitance values were continuously generated and recorded. The whole-cell capacitance was canceled with the slow capacitance compensation; unbalancing the slow capacitance compensation by 100 fF provided the capacitance calibration signal used to calculate changes in membrane capacitance. The sinusoidal voltage template was interrupted to deliver depolarizations to a cell. Beta cells were stimulated with a train of ten step depolarizations to +20 mV (HP=−80 mV). Each step depolarization lasted 150 ms and was separated by 400 ms interpulse duration. Capacitance measurements were carried out in the perforated whole-cell configuration. The data were collected at a 500 μsec sampling rate and filtered at 5 kHz. Recordings with series resistance >20 MΩ were discarded. Series resistance compensation was applied in all recordings.
The recording solution for the capacitance measurements contained (in mM): 130 NaCl, 2 glucose, 10 Na-HEPES, 1 MgCl2, 2 KCl, and 5 CaCl2, pH 7.3 with NaOH. The pipette solution contained (in mM): 135 Cs-glutamate, 10 Na-HEPES, 9.5 NaCl, 0.5 TEACl, and 0.5 CaCl2, pH7.3 with CsOH. The pipettes were backfilled with an identical solution to which amphotericin B (final concentration of 0.5 mg/ml) was added and then sonicated. The amphotericin B stock solution (125 mg/ml) was kept frozen at −20° C. and used for one week. ALLM pre-treatment was as described above (see patch-clamp electrophysiology section). All electrophysiological recordings were carried out at room temperature (22-24° C.)

Experiment [2] deals with mouse islets. Nature of the experiment: Measurement of islet [Ca2+]i (Fura-2). It counts as cell-based. As to the method: Measurement of islet [Ca^2+]i, and NAD(P)H. Islet [Ca^2+]i and NAD(P)H were measured as previously described (Pontoglio et al., 1998; Dukes et al., 1998).
Insulin secretory responses to glucose and most other secretagogues is mediated by a rise in intracellular free calcium ([Ca^2+]i). We therefore measured [Ca^2+]i responses to glucose, KIC and KCl using Fura-2 as the Ca^2+ indicator. In comparison to the responses from the control islets, the most prominent abnormality in [Ca^2+]i responses to glucose and KIC was a delay of the [Ca^2+]i responses (FIG. 21). The mean time interval between administration of 14 mM glucose and the point of half maximal response (T1/2.) was 120±14 seconds in control islets. […] There was no delay in the appearance of [Ca^2+]i response to KCl, nor was the magnitude of the response reduced.

The subject of experiment [3] is rat soleus muscle strips. Nature of the experiment: 2-Deoxyglucose uptake into soleus muscle strips. It counts as cell-based. The conditions noted are these: 100 μM ALLM or 200 μM E-64-d. As to the method: 2-Deoxyglucose uptake into skeletal muscle and adipose tissue. 2-deoxyglucose (2-DOG) uptake by isolated strips of soleus muscle from normal Wistar rats was measured using a modification of a previously described protocol (Burant et al., 1984). […] Muscles were then extracted and 2-DOG uptake calculated as previously described (Burant et al., 1984).

The subject of experiment [4] is islets. Nature of the experiment: Insulin content of islets after 48 h inhibitor exposure. The class given is cell-based, mouse. To be noted: 48 hours treatment.

`CSCC[C@@H](C=O)NC(=O)[C@H](CC(C)C)NC(=O)[C@H](CC(C)C)NC(C)=O` [ALLM, N-Ac-Leu-Leu-methioninal] (Ac-Leu-Leu-Met-aldehyde): in experiment [1] (4 days culture with inhibitor), the “rates of exocytosis in β-cells” value is given as “significantly lower rates of exocytosis”. The “change in membrane capacitance elicited by train of depolarizations” value in experiment [1] (ALLM 100 μM pre-treatment, vs control cells) is on record as “much larger average changes in membrane capacitance”. Moreover, in experiment [2] (4 hr preincubation, 14 mM glucose), the “[Ca2+]i response to high glucose” value is “not associated with increases in [Ca^2+]i”. Further, in experiment [2] (48 h treated islets), the “[Ca2+]i response to glucose ramp (2 to 26 mM over 48 mins)” value is recorded as “diminished”; the “[Ca2+]i responses to 30 mM KCl vs control” value was “not different”; the “integrated [Ca2+]i responses (area under the curves) to glucose and KIC vs control” value is listed as “significantly smaller”. The “T1/2 of [Ca2+]i response to 14 mM glucose (time to half maximal response)” value in experiment [2] (48 h treated islets, control 120±14 seconds) is 5.32 ± 0.7 min. For the same compound, the “T1/2 of [Ca2+]i response to KIC” value in experiment [2] (48 h treated islets, control 125±9) is 4.18 ± 0.7 min. In addition, in experiment [3] (insulin 12 nM), the “2-deoxyglucose uptake into soleus muscle strips with insulin” value was 0.34±0.05 (mol/ml H20/30 mins. The “2-deoxyglucose uptake into soleus muscle strips without insulin” value in experiment [3] (no insulin) is recorded as 0.28±0.04 (mol/ml H20/30 mins. Also, in experiment [4], the “insulin content in islets vs control islets” value is listed as “comparable”.

The values above are taken from US20060234276A1, “Methods of treatment of type 2 diabetes” (priority 1998, published 2006).
